Reference: patent US5264586A, “Analogs of calicheamicin gamma1I, method of making and using the same” (priority 1992, dated 1993)

Experiments:
[1] = tested on: ATCC Molt-4 (T-cell leukemia); experiment: Sulforhodamine B cytotoxicity assay, Molt-4; format: cell-based; conditions: 72 hours, SRB
Description: (§1) Sulfurodamine B Cytotoxicity Assay
(§2) Cytotoxicity assays using (-)-calicheamicinone were carried out as follows:
(§3) 1. Preparation of target cells in 96-well plates
(§4) g. Adjust volume of cell suspension with T.C. media to give a density of 1×10^5 cells/mL.
(§5) j. Incubate plates for 24 hours at 37° C., 5-10 percent CO2 in a humidified incubator.
(§6) a. Stock drug solutions were prepared by dissolving drug in the appropriate solvent (determined during chemical characterization studies) and sterile filtering the drug-solvent solution through a sterile 0.2 μ filter unit. An aliquot was taken from each filtered drug solution and the O.D. was measured to determine the drug concentration.
(§7) b. Dilute the stock drug solution prepared above with T.C. medium to the desired initial concentration (10^-2 -10^-4 M). A minimum volume of 220 μL of diluted drug is required per 96-well plate used in the assay.
(§8) b. Add 100 μL of the initial compound dilution to adjacent duplicate wells in Columns #2. (Four materials can be tested in duplicate per 96-well plate.)
(§9) d. Transfer 10 μL to the appropriate wells in Column #4 and continue to make 1:10 dilutions of compound across the plate through Column #12.
f. […]
(§10) g. Read plates on a microtiter plate reader at […].
(§11) IC50 values; i.e., the concentration of Compound required to kill one-half of the treated cells, were then calculated. […]

[2] = tested on: ATCC Capan-1 (pancreatic carcinoma); experiment: Sulforhodamine B cytotoxicity assay, Capan-1; format: cell-based; conditions: 72 hours, SRB
Description: as §1, §2, §3, §4, §5, §6, §7, §8, §9
f. […]
as §10, §11

[3] = tested on: ATCC HT-29 (Colon carcinoma); experiment: Sulforhodamine B cytotoxicity assay, HT-29; format: cell-based; conditions: 72 hours, SRB
Description: as §1, §2, §3, §4, §5, §6, §7, §8, §9
f. […]
as §10, §11

[4] = tested on: ATCC P-388 (Mouse leukemia); experiment: Sulforhodamine B cytotoxicity assay, P-388; format: cell-based; conditions: SRB
Description: as §1, §2, §3, §4, §5, §6, §7, §8, §9
f. […]
as §10, §11

[5] = tested on: ATCC Ovcar 3 (Ovarian carcinoma); experiment: Sulforhodamine B cytotoxicity assay, Ovcar 3; format: cell-based; conditions: 72 hours, SRB
Description: as §1, §2, §3, §4, §5, §6, §7, §8, §9
f. […]
as §10, §11

[6] = tested on: NHDF (Normal human dermal fibroblast); experiment: Sulforhodamine B cytotoxicity assay, NHDF; format: cell-based; conditions: 72 hours, SRB
Description: as §1, §2, §3, §4, §5, §6, §7, §8, §9
f. […]
as §10, §11

UCLA-P3 (lung carcinoma) = experiment: Sulforhodamine B cytotoxicity assay, UCLA-P3; format: cell-based; conditions: SRB
Description: as §1, §2, §3, §4, §5, §6, §7, §8, §9
f. […]
as §10, §11

[7] = tested on: ATCC SK-MEL-28 (Melanoma); experiment: Sulforhodamine B cytotoxicity assay, SK-MEL-28; format: cell-based; conditions: 72 hours, SRB
Description: as §1, §2, §3, §4, §5, §6, §7, §8, §9
f. […]
as §10, §11

[8] = tested on: ATCC HL-60 (promyeocytic leukemia); experiment: Sulforhodamine B cytotoxicity assay, HL-60; format: cell-based; conditions: 72 hours, SRB
Description: as §1, §2, §3, §4, §5, §6, §7, §8, §9
f. […]
as §10, §11

[9] = tested on: CHO (Chinese hampster ovary); experiment: Sulforhodamine B cytotoxicity assay, CHO; format: cell-based; conditions: 72 hours, SRB
Description: as §1, §2, §3, §4, §5, §6, §7, §8, §9
f. […]
as §10, §11

[10] = tested on: ATCC MCF-7 (Breast carcinoma); experiment: Sulforhodamine B cytotoxicity assay, MCF-7; format: cell-based; conditions: SRB
Description: as §1, §2, §3, §4, §5, §6, §7, §8, §9
f. […]
as §10, §11

H-322 (lung carcinoma) = experiment: Sulforhodamine B cytotoxicity assay, H-322; format: cell-based; conditions: NCI-H322, 72 hours, SRB
Description: as §1, §2, §3, §4, §5, §6, §7, §8, §9
f. […]
as §10, §11

DNA = conditions: double stranded DNA; cited from earlier work
murine tumors = conditions: cited from earlier work

COC(=O)NC1=C2/C(=C\CSSSC)[C@](O)(C#C/C=C\C#C[C@@H]2O)CC1=O [(-)-calicheamicinone, (-)-Calicheamicinone]
IC50 [1]: 0.001 µM
IC50 [2]: 3.1 µM
IC50 [3]: 28 µM
IC50 ([4]; 72 hours): 0.39 µM
IC50 [5]: 25 µM
IC50 [6]: 13 µM
IC50 (UCLA-P3 (lung carcinoma); 72 hours): 25 µM
IC50 [7]: 25 µM
IC50 [8]: 0.2 µM
IC50 [9]: 63 µM
IC50 ([10]; 72 hours): 13 µM

COc1cccc2c1C(=O)c1c(O)c3c(c(O)c1C2=O)C[C@@](O)(C(C)=O)C[C@@H]3O[C@H]1C[C@H](N)[C@H](O)[C@H](C)O1 [Daunomycin, daunomycin]
IC50 ([1]; Homo sapiens): 0.0001 µM
IC50 ([2]; Homo sapiens): 0.78 µM
IC50 ([3]; Homo sapiens): 1.6 µM
IC50 ([4]; Mus musculus, P388, 72 hours): 0.2 µM
IC50 ([5]; Homo sapiens): 0.39 µM
IC50 ([6]; Homo sapiens): 0.39 µM
IC50 (H-322 (lung carcinoma)): 1.6 µM
IC50 (UCLA-P3 (lung carcinoma); Homo sapiens, UCLA P-3, 72 hours): 1.6 µM
IC50 ([7]; Homo sapiens): 1.6 µM
IC50 ([8]; Homo sapiens): 0.2 µM
IC50 [9]: 1.6 µM
IC50 ([10]; Homo sapiens, MCF7, 72 hours): 0.39 µM

CCN[C@H]1CO[C@@H](O[C@H]2[C@H](O[C@H]3C#C/C=C\C#C[C@]4(O)CC(=O)C(NC(=O)OC)=C3/C4=C\CSSSC)O[C@H](C)[C@@H](NO[C@H]3C[C@H](O)[C@H](SC(=O)c4c(C)c(I)c(O[C@@H]5O[C@@H](C)[C@H](O)[C@@H](OC)[C@H]5O)c(OC)c4OC)[C@@H](C)O3)[C@@H]2O)C[C@@H]1OC [calicheamicin]
DNA cleavage site / sequence specificity (DNA): 5' side of a TCCT sequence
optimal dose against murine tumors (murine tumors; murine tumors): 0.5-1.5 microgram (μg) per kilogram (kg) of body weight
activity relative to adriamycin against murine tumors (murine tumors; vs adriamycin): about 1000 -fold more active

Neocarzinostatin
DNA cleavage site / sequence specificity (DNA): sequence-specificity in its DNA cleavage
